Assay results reported in patent US5861476A, “Peptides and compounds that bind to the IL-1 receptor” (Affymax Technologies N.V., priority 1995, dated 1999).
pIC50: −log10 of the molar value. Read-outs that look alike come from different tables or passages of the source. Where a SMILES comes first, the peptide text is derived from it. Where no end group is shown, it is not given here. [ ]: non-standard residue; d: D form. Bpa = N[C@@H](Cc1ccc(C(=O)c2ccccc2)cc1)C(=O)O; 1Nal = N[C@@H](Cc1cccc2ccccc12)C(=O)O; Aze = O=C(O)[C@@H]1CCN1; Sar = CNCC(=O)O

Target: T1, IL-1RtI (Homo sapiens, UniProt P14778)
T1 construct: made in house; host or cells: recombinant host cells (one form soluble from baculovirus transformed host cells; another PIG-tailed and cleaved from the cell surface)
T1 sequence (P14778 18-336): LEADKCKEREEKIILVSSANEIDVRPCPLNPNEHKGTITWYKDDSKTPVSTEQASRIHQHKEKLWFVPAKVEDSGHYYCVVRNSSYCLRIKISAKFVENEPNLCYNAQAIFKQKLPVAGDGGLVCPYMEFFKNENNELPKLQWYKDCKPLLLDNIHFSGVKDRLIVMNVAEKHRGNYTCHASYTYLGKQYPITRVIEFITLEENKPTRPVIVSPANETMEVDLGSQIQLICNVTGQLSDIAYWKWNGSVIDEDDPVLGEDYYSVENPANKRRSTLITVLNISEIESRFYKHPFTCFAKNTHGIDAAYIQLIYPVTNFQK
Assay: Inhibition of 125I-IL-1α binding to IL-1RtI (Example 3)
Procedure: This example provides the results of experiments conducted to determine an approximate IC50 for certain peptides of the invention. IC50 as used herein refers to the concentration of a compound which will inhibit 50% of the binding between a receptor and its ligand, e.g. IL-1RtI and IL-1. Stock solutions of each peptide were prepared. The appropriate amount of the peptide was dissolved in DMSO, and then nineteen volumes of binding buffer (RPMI 1640, 1% BSA, 20 mM HEPES, pH 7.2-7.3, and 0.1% sodium azide) were added to yield a 1 mM peptide, 5% DMSO stock solution.
One assay utilized a truncated IL-1RtI which had been immobilized on 96-well plates with an appropriate antibody, typically a non-blocking high affinity antibody. In other assays, cells expressing "full-length" IL-1RtI were used with results that yielded IC50 values about 5 to 10 fold lower than those determined using the truncated receptor. The cells were seeded onto Falcon 3072 96-well plates at about 10^5 cells per well, and the plates were incubated overnight at 37° C. in media containing serum. The following morning, the cells were checked to ensure that the cells were confluent and adhered to the bottom of the wells.
According to either assay protocol, the plates were then washed three times with binding buffer, and then 50 μl of binding buffer and 25 μl of a peptide solution (either the stock solution or a dilution thereof; each stock was subjected to five three fold dilutions) were added to each well. Then 25 μl of binding buffer containing ^125 I-IL-1α (final concentration of 90 pM) were added to each well to begin the assay. Each assay was carried out in duplicate. The plates were then incubated for two hours at 4° C. For peptides having particularly high affinities, the assay was run in 24 well plates allowing for higher levels of ligand (possible total volume of 2.5 ml instead of 100 μl in the 96 well plate), thereby minimizing the potential for ligand depletion.
After the two hour incubation, the wells were rinsed three times with ice cold PBS (a semi-automated cell harvesting device was used to conduct the rinse). The receptors or cells were then detached from the plates by adding 100 μl of 0.1N NaOH to each well and incubating the plates at room temperature for 20 minutes. After the 20 minute incubation, about 75 μl of the suspension was counted on a gamma counter, and the IC50 for each peptide was determined using computer assistance and the results of the gamma counting.

[1] = inhibition of 125I-IL-1α binding to IL-1RtI, soluble peptide unless marked *

Molecule | pIC50 [1] | pIC50
C[C@@H](O)[C@H](NC(=O)[C@H](Cc1c[nH]c2ccccc12)NC(=O)[C@H](CCC(=O)O)NC(=O)[C@@H](N)Cc1cccc2ccccc12)C(=O)N1CCC[C@H]1C(=O)NCC(=O)N[C@@H](Cc1ccc(O)cc1)C(=O)N[C@@H](Cc1ccc(O)cc1)C(=O)N[C@@H](CCC(N)=O)C(=O)N1CC[C@H]1C(=O)N[C@@H](Cc1ccc(O)cc1)C(N)=O [1Nap--EWTPGYYQJY--NH2] (H-[1Nal]EWTPGYYQ[Aze]Y-NH2) | ≥ 6.30 | –
C[C@H](NC(=O)CNC(=O)[C@@H]1CCCN1C(=O)[C@@H](NC(=O)[C@H](Cc1c[nH]c2ccccc12)NC(=O)[C@H](CCC(=O)O)NC(=O)[C@@H](N)Cc1ccccc1)[C@@H](C)O)C(=O)N[C@@H](Cc1c[nH]c2ccccc12)C(=O)N[C@@H](CCC(N)=O)C(=O)N1CC[C@H]1C(=O)N[C@@H](Cc1ccc(O)cc1)C(N)=O [FEWTPGAWQJY--NH2] (H-FEWTPGAWQ[Aze]Y-NH2) | 6.30 | –
RWEQPYVKDGWS [RWEQPYVKDGWS] | ≥ 4.00 | –
C[C@@H](O)[C@H](NC(=O)[C@H](Cc1c[nH]c2ccccc12)NC(=O)[C@H](CCC(=O)O)NC(=O)[C@@H](N)Cc1ccccc1)C(=O)N1CCC[C@H]1C(=O)N[C@@H](CC(N)=O)C(=O)N[C@@H](Cc1ccc(O)cc1)C(=O)N[C@@H](Cc1c[nH]c2ccccc12)C(=O)N[C@@H](CCC(N)=O)C(=O)N1CC[C@H]1C(=O)N[C@@H](Cc1ccc(O)cc1)C(N)=O [FEWTPNYWQJY--NH2] (H-FEWTPNYWQ[Aze]Y-NH2) | ≥ 6.30 | –
DNSSWYDSFLL [DNSSWYDSFLL] | ≥ 4.00 | –
EIMFWQPYALPL [EIMFWQ PYALPL] | ≥ 4.00 | –
DNTAWYESFLA [DNTAWYESFLA] | ≥ 4.00 | –
YYTWQQPYALPL [YYTWQQ PYALPL] | < 4.00 | –
YYSWQPYALPL [YYSWQ PYALPL] | < 4.00 | –
C[C@@H](O)[C@H](NC(=O)[C@H](Cc1c[nH]c2ccccc12)NC(=O)[C@H](CCC(=O)O)NC(=O)[C@@H](N)Cc1ccccc1)C(=O)N1CCC[C@H]1C(=O)N(C)CC(=O)N[C@@H](Cc1c[nH]c2ccccc12)C(=O)N[C@@H](Cc1ccc(O)cc1)C(=O)N[C@@H](CCC(N)=O)C(=O)N1CC[C@H]1C(=O)N[C@@H](Cc1ccc(O)cc1)C(N)=O [FEWTPSarWYQJY--NH2] (H-FEWTP[Sar]WYQ[Aze]Y-NH2) | ≥ 6.30 | –
C[C@@H](O)[C@H](NC(=O)[C@H](Cc1c[nH]c2ccccc12)NC(=O)[C@H](CCC(=O)O)NC(=O)[C@@H](N)Cc1ccccc1)C(=O)N1CCC[C@H]1C(=O)NCC(=O)N[C@@H](Cc1ccc(C(=O)c2ccccc2)cc1)C(=O)N[C@@H](Cc1ccc(O)cc1)C(=O)N[C@@H](CCC(N)=O)C(=O)N1CC[C@H]1C(=O)N[C@@H](Cc1ccc(O)cc1)C(N)=O [FEWTPG--Bpa--YQJY--NH2] (H-FEWTPG[Bpa]YQ[Aze]Y-NH2) | ≥ 6.30 | –
C[C@@H](O)[C@H](NC(=O)[C@H](Cc1c[nH]c2ccccc12)NC(=O)[C@H](CCC(=O)O)NC(=O)[C@@H](N)Cc1ccc(C(=O)c2ccccc2)cc1)C(=O)N1CCC[C@H]1C(=O)NCC(=O)N[C@@H](Cc1ccc(O)cc1)C(=O)N[C@@H](Cc1ccc(O)cc1)C(=O)N[C@@H](CCC(N)=O)C(=O)N1CC[C@H]1C(=O)N[C@@H](Cc1ccc(O)cc1)C(N)=O [Bpa--EWTPGYYQJY--NH2] (H-[Bpa]EWTPGYYQ[Aze]Y-NH2) | ≥ 6.30 | –
GWYQPYVDGWR [GWYQPYVDGWR] | ≥ 4.00 | –
C[C@H](NC(=O)[C@H](Cc1c[nH]c2ccccc12)NC(=O)[C@H](CCC(=O)O)NC(=O)[C@@H](N)Cc1ccccc1)C(=O)N1CCC[C@H]1C(=O)NCC(=O)N[C@@H](Cc1ccc(O)cc1)C(=O)N[C@@H](Cc1c[nH]c2ccccc12)C(=O)N[C@@H](CCC(N)=O)C(=O)N1CC[C@H]1C(=O)N[C@@H](Cc1ccc(O)cc1)C(N)=O [FEWAPGYWQJY--NH2] (H-FEWAPGYWQ[Aze]Y-NH2) | ≥ 6.30 | –
VIEWWQPYALPL [VIEWWQ PYALPL] | ≥ 4.00 | –
C[C@@H](O)[C@H](NC(=O)[C@H](Cc1c[nH]c2ccccc12)NC(=O)[C@H](CCC(=O)O)NC(=O)[C@@H](N)Cc1ccc(O)cc1)C(=O)N1CCC[C@H]1C(=O)NCC(=O)N[C@@H](Cc1ccc(O)cc1)C(=O)N[C@@H](Cc1ccc(O)cc1)C(=O)N[C@@H](CCC(N)=O)C(=O)N1CC[C@H]1C(=O)N[C@@H](Cc1ccc(O)cc1)C(N)=O [YEWTPGYYQJY--NH2] (H-YEWTPGYYQ[Aze]Y-NH2) | ≥ 6.30 | –
C[C@H](NC(=O)[C@H](Cc1c[nH]c2ccccc12)NC(=O)[C@H](Cc1ccc(O)cc1)NC(=O)CNC(=O)[C@@H]1CCCN1C(=O)[C@@H](NC(=O)[C@H](Cc1c[nH]c2ccccc12)NC(=O)[C@H](CCC(=O)O)NC(=O)[C@@H](N)Cc1ccccc1)[C@@H](C)O)C(=O)N1CC[C@H]1C(=O)N[C@@H](Cc1ccc(O)cc1)C(N)=O [FEWTPGYWAJY--NH2] (H-FEWTPGYWA[Aze]Y-NH2) | < 4.00 | –
CC(=O)N[C@@H](Cc1ccccc1)C(=O)N[C@@H](CCC(=O)O)C(=O)N[C@@H](Cc1c[nH]c2ccccc12)C(=O)N[C@H](C(=O)N1CCC[C@H]1C(=O)NCC(=O)N[C@@H](Cc1ccc(C(=O)c2ccccc2)cc1)C(=O)N[C@@H](Cc1ccc(O)cc1)C(=O)N[C@@H](CCC(N)=O)C(=O)N1CC[C@H]1C(=O)N[C@@H](Cc1ccc(O)cc1)C(N)=O)[C@@H](C)O [AcFEWTPG--Bpa--YQJY--NH2] (Ac-FEWTPG[Bpa]YQ[Aze]Y-NH2) | ≥ 6.30 | –
DYVWEQPYALPL [DYVWEQ PYALPL] | ≥ 4.00 | –
TLVYWQPYSLQT [Peptide H3, TLVYWQPYSLQT] | ≥ 4.00 | –
HIDNTAWYENFLLTYTP [HIDNTAWYENFLLTYTP] | – | > 6.30
C[C@@H](O)[C@H](NC(=O)[C@H](Cc1ccc(C(=O)c2ccccc2)cc1)NC(=O)[C@H](CCC(=O)O)NC(=O)[C@@H](N)Cc1ccccc1)C(=O)N1CCC[C@H]1C(=O)NCC(=O)N[C@@H](Cc1ccc(O)cc1)C(=O)N[C@@H](Cc1ccc(O)cc1)C(=O)N[C@@H](CCC(N)=O)C(=O)N1CC[C@H]1C(=O)N[C@@H](Cc1ccc(O)cc1)C(N)=O [FE--Bpa--TPGYYQJY--NH2] (H-FE[Bpa]TPGYYQ[Aze]Y-NH2) | < 4.00 | –
TLIYWQPYSVQI [TLIYWQPYSVQI] | ≥ 4.00 | –
C[C@H](NC(=O)[C@H](Cc1ccc(O)cc1)NC(=O)CNC(=O)[C@@H]1CCCN1C(=O)[C@@H](NC(=O)[C@H](Cc1c[nH]c2ccccc12)NC(=O)[C@H](CCC(=O)O)NC(=O)[C@@H](N)Cc1ccccc1)[C@@H](C)O)C(=O)N[C@@H](CCC(N)=O)C(=O)N1CC[C@H]1C(=O)N[C@@H](Cc1ccc(O)cc1)C(N)=O [FEWTPGYAQJY--NH2] (H-FEWTPGYAQ[Aze]Y-NH2) | ≥ 4.00 | –
CC(=O)N[C@@H](Cc1ccc(C(=O)c2ccccc2)cc1)C(=O)N[C@@H](CCC(=O)O)C(=O)N[C@@H](Cc1c[nH]c2ccccc12)C(=O)N[C@H](C(=O)N1CCC[C@H]1C(=O)NCC(=O)N[C@@H](Cc1ccc(O)cc1)C(=O)N[C@@H](Cc1ccc(O)cc1)C(=O)N[C@@H](CCC(N)=O)C(=O)N1CC[C@H]1C(=O)N[C@@H](Cc1ccc(O)cc1)C(N)=O)[C@@H](C)O [AcBpa--EWTPGYYQJY--NH2] (Ac-[Bpa]EWTPGYYQ[Aze]Y-NH2) | ≥ 6.30 | –
C[C@H](N)C(=O)N[C@@H](CCC(=O)O)C(=O)N[C@@H](Cc1c[nH]c2ccccc12)C(=O)N[C@H](C(=O)N1CCC[C@H]1C(=O)NCC(=O)N[C@@H](Cc1ccc(O)cc1)C(=O)N[C@@H](Cc1c[nH]c2ccccc12)C(=O)N[C@@H](CCC(N)=O)C(=O)N1CC[C@H]1C(=O)N[C@@H](Cc1ccc(O)cc1)C(N)=O)[C@@H](C)O [AEWTPGYWQJY--NH2] (H-AEWTPGYWQ[Aze]Y-NH2) | ≥ 4.00 | –
RSLYWQPYALPL [RSLYWQ PYALPL] | ≥ 4.00 | –
C[C@H](NC(=O)[C@H](CCC(=O)O)NC(=O)[C@@H](N)Cc1ccccc1)C(=O)N[C@H](C(=O)N1CCC[C@H]1C(=O)NCC(=O)N[C@@H](Cc1ccc(O)cc1)C(=O)N[C@@H](Cc1c[nH]c2ccccc12)C(=O)N[C@@H](CCC(N)=O)C(=O)N1CC[C@H]1C(=O)N[C@@H](Cc1ccc(O)cc1)C(N)=O)[C@@H](C)O [FEATPGYWQJY--NH2] (H-FEATPGYWQ[Aze]Y-NH2) | ≥ 4.00 | –
C[C@H](NC(=O)[C@@H](NC(=O)[C@H](Cc1c[nH]c2ccccc12)NC(=O)[C@H](CCC(=O)O)NC(=O)[C@@H](N)Cc1ccccc1)[C@@H](C)O)C(=O)NCC(=O)N[C@@H](Cc1ccc(O)cc1)C(=O)N[C@@H](Cc1c[nH]c2ccccc12)C(=O)N[C@@H](CCC(N)=O)C(=O)N1CC[C@H]1C(=O)N[C@@H](Cc1ccc(O)cc1)C(N)=O [FEWTAGYWQJY--NH2] (H-FEWTAGYWQ[Aze]Y-NH2) | ≥ 6.30 | –
